Drawing on ChEMBL document CHEMBL3872219, “Computational and synthetic approaches for developing Lavendustin B derivatives as allosteric inhibitors of HIV-1 integrase” (Eur J Med Chem, 2016), this text covers Activity and IC50 for 6 compounds.

Calls of active or inactive are those of the source. The calls are words filed in the database; no cut-off is given here.

The first series has as its system Human immunodeficiency virus 1. The experiment in a line: Antiviral activity against VSV-g pseudotyped HIV1 infected in HEK293T cells incubated for 2 hrs prior to viral infection followed by compound wash out at 2 hrs post infection and subsequent compound readdition measured after 48 hrs by luciferase reporter gene assay. The class given is functional, cell-based. The conditions noted are these: HEK-293T. In general terms: Reporter assays use an easily measured gene product as a stand-in for the process of interest.
Take `O=C(O)c1cc(N(Cc2ccccc2Cl)Cc2ccccc2Cl)ccc1O`: the outcome was Active.

System in another series: not listed separately
The experiment in a line: Inhibition of His-tagged LEDGF/p75 (unknown origin) dependent FLAG or His-tagged HIV1 integrase activity expressed in Escherichia coli BL21(DE3) using 32-mer blunt-ended U5 viral donor DNA and pBR322 target DNA preincubated for 5 mins followed by LEDGF/p75 addition measured after 90 mins by agarose gel electrophoresis.
Conditions: not given
As to `O=C(O)c1cc(N(Cc2cccc(Cl)c2)Cc2cccc(Cl)c2)ccc1O`, the midpoint of inhibition, the IC50, lay at 13.5 µM.

`O=C(O)c1cc(N(Cc2ccccc2F)Cc2ccccc2F)ccc1O`: the IC50 (usually the midpoint of a concentration-inhibition curve) was 9 µM.

`O=C(O)c1cc(N(Cc2ccccc2)Cc2ccccc2)ccc1O`: half-maximal inhibition (IC50) was put at 7.93 µM.

As to `Cc1ccccc1CN(Cc1ccccc1C)c1ccc(O)c(C(=O)O)c1`, the IC50 came to 14.7 µM. Against the preceding compound, the IC50 is about 1.9-fold higher.

Regarding `O=C(O)c1cc(N(Cc2cccc(F)c2)Cc2cccc(F)c2)ccc1O`, the IC50 came to 18.5 µM.

On to `O=C(O)c1cc(N(Cc2ccccc2Cl)Cc2ccccc2Cl)ccc1O`, for which the IC50 is 3.78 µM.

System in the next series: not listed separately
Put plainly: Inhibition of FLAG or His-tagged HIV1 integrase 3' processing activity expressed in Escherichia coli BL21(DE3) using [32P]-labeled blunt ended 21-mer or recessed ended 19-mer double stranded U5 DNA as substrate preincubated for 30 mins followed by substrate addition measured after 1 hr by polyacrylamide gel electrophoresis. Set-up: species or system Human immunodeficiency virus 1.
Conditions: not given
`O=C(O)c1cc(N(Cc2cccc(Cl)c2)Cc2cccc(Cl)c2)ccc1O` showed an IC50 greater than 70 µM.

For `O=C(O)c1cc(N(Cc2ccccc2F)Cc2ccccc2F)ccc1O`, the IC50 was found to be 63.1 µM. That is a double-digit micromolar value.

Consider `O=C(O)c1cc(N(Cc2ccccc2)Cc2ccccc2)ccc1O`, for which the IC50 came out at 70 µM.

The compound `Cc1ccccc1CN(Cc1ccccc1C)c1ccc(O)c(C(=O)O)c1` gave an IC50 greater than 70 µM.

For the compound `O=C(O)c1cc(N(Cc2cccc(F)c2)Cc2cccc(F)c2)ccc1O`, half-maximal inhibition (IC50) was put at 68.6 µM.

As for `O=C(O)c1cc(N(Cc2ccccc2Cl)Cc2ccccc2Cl)ccc1O`, the IC50 stood at 25.6 µM.

System in the next series: not listed separately
The experiment in a line: Inhibition of HIV1 His-tagged integrase/His-tagged LEDGF/p75 (unknown origin) interaction expressed in Escherichia coli BL21(DE3) preincubated for 30 mins with viral integrase followed by LEDGF/p75 addition measured after 30 mins by HTRF assay.
Conditions: not given
(In general: Time-resolved FRET reads energy transfer from a long-lived donor to a nearby acceptor.)
`O=C(O)c1cc(N(Cc2cccc(Cl)c2)Cc2cccc(Cl)c2)ccc1O` returned an IC50 of 19.5 µM. That is a double-digit micromolar value.

With `O=C(O)c1cc(N(Cc2ccccc2F)Cc2ccccc2F)ccc1O`, it took 17.8 µM to reach half-maximal inhibition (IC50). This IC50 and that of the compound before are within 1.5-fold of each other.

With `O=C(O)c1cc(N(Cc2ccccc2)Cc2ccccc2)ccc1O`, the IC50 is 8.75 µM.

Turning to `Cc1ccccc1CN(Cc1ccccc1C)c1ccc(O)c(C(=O)O)c1`, the IC50 is 27.6 µM.

In turn, `O=C(O)c1cc(N(Cc2cccc(F)c2)Cc2cccc(F)c2)ccc1O` gave an IC50 of 20.8 µM.

The compound `O=C(O)c1cc(N(Cc2ccccc2Cl)Cc2ccccc2Cl)ccc1O` yielded an IC50 of 3.28 µM.

System in the next series: not listed separately
Put plainly: Cytotoxicity against HEK293T cells assessed as reduction in cell viability. As to conditions: human, hek-293t. The class given is toxicity, cell-based.
On to `O=C(O)c1cc(N(Cc2ccccc2Cl)Cc2ccccc2Cl)ccc1O`, for which the Activity result is “Toxic”.
